Publication PMC7930720, “Functional Expression of the Human Glucose Transporters GLUT2 and GLUT3 in Yeast Offers Novel Screening Systems for GLUT-Targeting Drugs” (Frontiers in Molecular Biosciences, 2021)

Key:
Format in all cases: cell-based
GLUT2 [1] = molecular target: T1, GLUT2 (Homo sapiens, UniProt P11168, A89S/DEL55-88/Q455R); assay: inhibition of […]-glucose ([…]) uptake in hxt0 EBY.S7 yeast expressing the transporter; growth assay
T1 construct: gene SLC2A2
T1 sequence (P11168 with tags, fused parts or gaps DEL55-88/A89S/Q455R): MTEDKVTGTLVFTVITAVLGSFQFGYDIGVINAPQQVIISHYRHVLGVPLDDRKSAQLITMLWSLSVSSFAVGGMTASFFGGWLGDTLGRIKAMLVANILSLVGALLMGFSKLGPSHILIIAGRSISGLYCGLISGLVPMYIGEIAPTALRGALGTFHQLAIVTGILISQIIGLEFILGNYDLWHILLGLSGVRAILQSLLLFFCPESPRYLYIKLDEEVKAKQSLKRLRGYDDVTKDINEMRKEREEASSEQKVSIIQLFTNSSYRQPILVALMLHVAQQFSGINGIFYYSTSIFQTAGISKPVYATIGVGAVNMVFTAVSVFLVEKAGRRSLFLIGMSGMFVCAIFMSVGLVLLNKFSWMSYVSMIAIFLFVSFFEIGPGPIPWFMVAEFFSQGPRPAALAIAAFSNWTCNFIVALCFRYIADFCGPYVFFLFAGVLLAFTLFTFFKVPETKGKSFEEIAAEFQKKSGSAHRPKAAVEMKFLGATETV

GLUT3 [2] = molecular target: T2, GLUT3 (Homo sapiens, UniProt P11169, S66Y); assay: as above
T2 construct: gene SLC2A3; GLUT3S66Y
T2 sequence (P11169 1-496 S66Y): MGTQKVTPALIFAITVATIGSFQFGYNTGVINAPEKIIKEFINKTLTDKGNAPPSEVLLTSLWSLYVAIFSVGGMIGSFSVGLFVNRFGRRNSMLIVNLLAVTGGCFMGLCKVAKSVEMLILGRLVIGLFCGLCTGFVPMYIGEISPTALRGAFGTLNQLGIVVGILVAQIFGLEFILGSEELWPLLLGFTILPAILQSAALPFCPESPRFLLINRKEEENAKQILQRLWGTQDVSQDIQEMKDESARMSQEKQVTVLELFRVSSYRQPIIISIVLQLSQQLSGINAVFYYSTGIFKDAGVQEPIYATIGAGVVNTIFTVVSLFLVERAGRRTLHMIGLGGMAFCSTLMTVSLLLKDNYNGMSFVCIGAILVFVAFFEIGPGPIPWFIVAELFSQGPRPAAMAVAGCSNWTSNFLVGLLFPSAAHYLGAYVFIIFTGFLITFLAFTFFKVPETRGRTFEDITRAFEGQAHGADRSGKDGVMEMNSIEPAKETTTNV

GLUT3 [3] = molecular target: T2, GLUT3; assay: inhibition of […]-glucose ([…]) uptake in hxt0 EBY.S7 yeast expressing the transporter
GLUT2 [4] = molecular target: T1, GLUT2; assay: as above

Row | SMILES | IC50 (GLUT2 [1]) [µM] | IC50 (GLUT3 [2]) [µM] | IC50 (GLUT3 [3]) [µM] | IC50 (GLUT2 [4]) [µM]
1 | O=C(CCc1ccc(O)cc1)c1c(O)cc(O)cc1O [phloretin] | 1.07 ± 0.11 | 22.4 ± 1.8 | – | –
2 | O=c1c(O)c(-c2ccc(O)c(O)c2)oc2cc(O)cc(O)c12 [quercetin] | – | – | 11.6 ± 0.6 | 3.22 ± 0.45
